Results reported in patent US20250295609A1, “COMPOUND HAVING ANTI-ANDROGEN RECEPTOR ACTIVITY, AND USE THEREOF” (NANJING MINOVA PHARMACEUTICAL CO., LTD., priority 2022, published 2025).
Counter-ions that a name gives are not always drawn. Like-named read-outs stand apart in the source and are kept apart here.

What was measured:
[1] = system: human prostate cancer cells LNCaP; assay: Cell viability inhibition assay (CTG) on LNCaP cells in presence of DHT; assay type: cell-based; conditions: read-out: Inhibitory activity against human prostate cancer cell LNCaP IC50
Excerpt: Human prostate cancer cells LNCaP and human prostate cancer cells 22Rvl are present in patients with prostate cancer. An androgen, DHT, is able to promote the growth of human prostate cancer cells LNCaP. Using the cell model described above was intended to study the inhibitory effects of the compounds of the present disclosure on the growth of human prostate cancer cells (human prostate cancer cells LNCaP and human prostate cancer cells 22Rvl) in the presence or absence of DHT.
The medium in the culture dish was discarded, and 5 mL of trypsin was added for digestion for about 3 mins. The digestion was stopped by adding 10 mL of a fresh medium. The cells were fully pipetted and transferred to a 15 mL centrifuge tube, and the cells were collected by centrifugation at 1000 rpm for 5 mins. The cells collected by centrifugation were resuspended in 11 mL of a fresh medium. 1 mL of the cells was taken and counted, and the cell viability was detected. The cell density was adjusted to 1×10^4 cells/mL by adding an appropriate amount of the medium. The cells were seeded in a 96-well plate at 200 µL/well, and the plate was incubated overnight in a cell incubator.
After the cells were attached to the well, for the human prostate cancer cells LNCaP group, test compounds (0.1 μM, 0.3 μM, 1 μM, 3 μM, 10 μM, and 30 μM) and DHT (1 nM, inducing the expression of AR) were added to the 96-well plate, and the plate was incubated for another 5 days; for the human prostate cancer cells 22Rvl group, test compounds (0.1 μM, 0.3 μM, 1 μM, 3 μM, 10 μM, and 30 μM) were added to the 96-well plate, and the plate was incubated for another 5 days. […] The 96-well plate was equilibrated at room temperature for 30 mins. The cell viability was detected by using a CTG method. Before detection, CellTiter-Glo® Buffer and a substrate thereof (collectively called CTG reagent) were thawed and equilibrated to room temperature. Then, […] of Buffer was gently mixed with the substrate to form a homogeneous solution. The homogeneous solution was added to the 96-well plate at 100 µL/well, and the 96-well plate was incubated on a shaker for 15 mins. The fluorescence value in each well was then detected. The detection method for the fluorescence value in each well was as follows: after adding the CTG reagent, luminescence detection (integration time: 500 ms) was performed by using a correspondingly equipped multi-mode microplate reader (M200Pro, TECAN, Switzerland) according to the supplier's manual to quantify the effect of the inhibitor on the cell viability. For data analysis, an assay background value was subtracted from all data points, which was determined in wells containing the medium but no cells. Data were processed using the XLfit software (XLfit 5.2., IDBS, UK), and IC50 values of the test compounds were calculated.

[2] = biological target: T1, AR protein expression in human prostate cancer cells LNCaP (Homo sapiens, UniProt P10275, T878A); assay: Reduction of AR protein expression in LNCaP cells (Western blot, with DHT); assay type: cell-based; conditions: 1 nM DHT; for anti-AR activity (in words): Western blot; for AR reduction percentage: 2.5 μmol/L compound; for AR reduction percentage / Relative potency (anti-AR activity): 48 h; for Relative potency (anti-AR activity): concentration basis not given
T1 sequence (P10275 1-920 T878A): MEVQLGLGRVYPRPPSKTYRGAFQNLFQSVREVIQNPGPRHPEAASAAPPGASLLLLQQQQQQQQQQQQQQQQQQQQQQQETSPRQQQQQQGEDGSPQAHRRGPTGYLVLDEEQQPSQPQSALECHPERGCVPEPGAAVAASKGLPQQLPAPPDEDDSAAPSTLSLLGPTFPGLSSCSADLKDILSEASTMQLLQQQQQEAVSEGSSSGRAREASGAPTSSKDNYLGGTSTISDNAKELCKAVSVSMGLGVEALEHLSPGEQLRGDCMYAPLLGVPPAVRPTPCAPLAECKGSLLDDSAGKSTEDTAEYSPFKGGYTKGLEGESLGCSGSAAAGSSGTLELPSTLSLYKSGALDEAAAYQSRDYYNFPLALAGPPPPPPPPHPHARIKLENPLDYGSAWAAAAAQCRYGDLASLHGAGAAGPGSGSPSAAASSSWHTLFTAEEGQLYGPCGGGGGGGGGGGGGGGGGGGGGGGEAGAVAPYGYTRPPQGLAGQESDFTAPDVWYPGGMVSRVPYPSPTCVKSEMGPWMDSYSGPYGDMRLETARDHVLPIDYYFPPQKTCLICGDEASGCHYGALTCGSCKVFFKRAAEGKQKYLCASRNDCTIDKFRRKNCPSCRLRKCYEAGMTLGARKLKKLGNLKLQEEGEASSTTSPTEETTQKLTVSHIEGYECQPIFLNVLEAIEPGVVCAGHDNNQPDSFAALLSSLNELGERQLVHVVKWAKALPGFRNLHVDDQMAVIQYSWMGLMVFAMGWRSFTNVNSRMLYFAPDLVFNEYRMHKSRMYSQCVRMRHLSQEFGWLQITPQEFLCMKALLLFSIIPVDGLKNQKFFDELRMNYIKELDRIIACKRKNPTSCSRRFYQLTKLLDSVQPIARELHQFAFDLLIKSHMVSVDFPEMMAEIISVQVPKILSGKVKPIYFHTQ
Description: The term “anti-AR activity” refers to the ability of the compound of the present disclosure to reduce AR expression in human prostate cancer cells LNCaP, and the ability of the compound of the present disclosure to reduce AR expression is expressed in AR reduction percentage (%) herein. […] The AR reduction percentage (%) is calculated as follows: AR reduction percentage (%)=(AR in DHT group/GAPDH value−AR in test compound group/GAPDH value)/AR in DHT group/GAPDH value×100%.
AR is a key factor for regulating the response of prostate cancer cells to androgens. AR is also a key factor for the response of hair follicles or tissues around the hair follicles to androgens, and the reduction of the AR content not only can down-regulate the growth of the prostate cancer cells, but also can inhibit androgenetic alopecia. This test example is to test the effects of the compounds of the present disclosure on the reduction of AR protein expression in human prostate cancer cells LNCaP in the presence of DHT. The compounds of the present disclosure were analyzed for anti-AR activity in human prostate cancer cells LNCaP by measuring the reduction of AR protein using the Western blot method.
Human prostate cancer cells LNCaP were seeded in a 6-well plate at 4×10^5 cells/mL and at a volume of 2 mL per well. The plate was incubated overnight in a cell incubator. DMSO and dihydrotestosterone (DHT, 1 nM) were used as control groups. Assays were performed in the presence of dihydrotestosterone (DHT, 1 nM). After incubating with the test compounds for a specified time, the cells were collected and dissolved according to the Western blot technique known in the biochemical art. A DMSO group, a DHT group (1 nM) and test compound groups (containing 1 nM DHT) were set during the assay. DMSO and DHT (1 nM DHT) were added to 6-well plates corresponding to the DMSO group and the DHT group, respectively. […] The protein concentration was quantified using the BCA kit, and then the samples were stored for later use.
The content of the AR protein in each group was determined by using Western Blot, and the loading amount of the sample in each group was […]. Western blot analysis has been disclosed in the prior art. Specifically, the cells were collected in 2× sodium dodecyl sulfate/polyacrylamide gel electrophoresis loading buffer or in radioimmunoprecipitation assay (RIPA) buffer strengthened with 10 μg/mL benzamidine, 10 μg/mL trypsin inhibitor, and 1 mM phenylmethylsulfonyl fluoride. A sample of total protein (about 40 μg) from each cell lysate was separated by electrophoresis on an SDS/PAGE gel. After separation by electrophoresis, the proteins were transferred from the gel to a nitrocellulose membrane following the standard procedures. The membrane was then incubated with 10% non-fat milk in phosphate-buffered saline supplemented with 0.1% Tween 20 (PBST) for 1 h, followed by incubation with a primary human AR-specific antibody (purchased from BD-Harlingen) at 4° C. overnight. After incubation, the membrane was washed 3 times with PBST buffer, each for 10 mins. An alkaline phosphatase-conjugated secondary antibody was then added, and the membrane was incubated at room temperature for 1 h. After the secondary incubation, the membrane was washed again with PBST, and the AR protein signal in the membrane was visualized by adding an alkaline phosphatase medium, bromochloroindolyl phosphate, and nitrotetrazole to the membrane. To ensure that an equal amount of protein from each sample was analyzed, a portion of the membrane was kept with a specific antibody for the regulatory protein GAPDH (Santa Cruz Biotechnology), and the GAPDH signal was visualized with the secondary antibody described above. The protein signal intensity (as indicated by color bands on the membrane) was measured using a densitometer and analyzed by the NIH Image J software (NIH1.33).

[3] = Homo sapiens, 120 h, 1 nM DHT, 5 days, CTG

IC50 [1, 3]	SMILES	IC50 ([1]; Homo sapiens, 120 h)	also measured
980 nM	COc1ccc(/C=C/C(=O)C2(C(=O)/C=C/c3ccc(OC)c(OC)c3)CCC3(CC2)OCCO3)cc1OC [Compound 11]	–	–
–	COc1ccc(/C=C/C(=O)C2(C(=O)/C=C/c3ccc(OC)c(OC)c3)CCN(S(C)(=O)=O)CC2)cc1OC [Compound 24]	610 nM	–
–	CCN(CC)C1CCC(C(=O)/C=C/c2ccc(OC)c(OC)c2)(C(=O)/C=C/c2ccc(OC)c(OC)c2)CC1 [Compound 16 hydrochloride]	370 nM	–
–	COc1ccc(/C=C/C(=O)C2(C(=O)/C=C/c3ccc(OC)c(OC)c3)CCC(N3CCOCC3)CC2)cc1OC [Compound 12]	–	IC50 ([1]; 1 nM DHT, 5 days, CTG): 1290 nM
620 nM	COc1ccc(/C=C/C(=O)C2(C(=O)/C=C/c3ccc(OC)c(OC)c3)CCC(NC3CC(F)(F)C3)CC2)cc1OC [Compound 23 hydrochloride]	–	–
950 nM	COc1ccc(/C=C/C(=O)C2(C(=O)/C=C/c3ccc(OC)c(OC)c3)CCC(O)CC2)cc1OC [Compound 13]	–	–
–	[2H]C([2H])([2H])Oc1ccc(/C=C/C(=O)C2(C(=O)/C=C/c3ccc(OC([2H])([2H])[2H])c(OC([2H])([2H])[2H])c3)C([2H])([2H])C2([2H])[2H])cc1OC([2H])([2H])[2H] [Compound 6]	2560 nM	–
–	COc1ccc(/C=C/C(=O)C2(C(=O)/C=C/c3ccc(OC)c(OC)c3)CCC(N3CCOCC3)CC2)cc1OC [Compound 12 hydrochloride]	–	IC50 ([1]; 1 nM DHT, 5 days, CTG, listed as 12 hydrochloride): 450 nM; anti-AR activity (in words) [2]: significant anti-AR activities; AR reduction percentage [2]: 86.2%; Relative potency (anti-AR activity) [2]: ++++++ (75 < * ≤ 100)
–	COc1ccc(/C=C/C(=O)C2(C(=O)/C=C/c3ccc(OC)c(OC)c3)CC3(CC3)C2)cc1OC [Compound 5]	5480 nM	–
–	[2H]C([2H])([2H])Oc1ccc(/C=C/C(=O)C2(C(=O)/C=C/c3ccc(OC([2H])([2H])[2H])c(OC([2H])([2H])[2H])c3)CCCC2)cc1OC([2H])([2H])[2H] [Compound 3]	1750 nM	–
–	COc1ccc(/C=C/C(=O)C2(C(=O)/C=C/c3ccc(OC)c(OC)c3)CCC3(CC3)CC2)cc1OC [Compound 26]	620 nM	–
3140 nM	COc1ccc(/C=C/C(=O)C2(C(=O)/C=C/c3ccc(OC)c(OC)c3)CC=C(F)CC2)cc1OC [Compound 22]	–	–
–	COc1ccc(/C=C/C(=O)C2(C(=O)/C=C/c3ccc(OC)c(OC)c3)CCN(C(=O)OC(C)(C)C)CC2)cc1OC [Compound 25]	1370 nM	–
–	[2H]C([2H])([2H])Oc1ccc(/C=C/C(=O)C2(C(=O)/C=C/c3ccc(OC([2H])([2H])[2H])c(OC([2H])([2H])[2H])c3)CCC2)cc1OC([2H])([2H])[2H] [Compound 2]	1820 nM	–
–	COc1ccc(/C=C/C(=O)C2(C(=O)/C=C/c3ccc(OC)c(OC)c3)COC(=O)OC2)cc1OC [Compound 9]	3310 nM	–
350 nM	COc1ccc(/C=C/C(=O)C2(C(=O)/C=C/c3ccc(OC)c(OC)c3)CCC(N3CCCCC3)CC2)cc1OC [Compound 19 hydrochloride]	–	anti-AR activity (in words) [2]: significant anti-AR activities; AR reduction percentage [2]: 81.4%; Relative potency (anti-AR activity) [2]: ++++++ (75 < * ≤ 100)
610 nM	COc1ccc(/C=C/C(=O)C2(C(=O)/C=C/c3ccc(OC)c(OC)c3)CCC(N3CCC(F)(F)CC3)CC2)cc1OC [Compound 18 hydrochloride]	–	–
–	[2H]C([2H])([2H])Oc1ccc(/C=C/C(=O)C2(C(=O)/C=C/c3ccc(OC([2H])([2H])[2H])c(OC([2H])([2H])[2H])c3)CC2)cc1OC([2H])([2H])[2H] [Compound 1]	1710 nM	–
